# Assay results from US20120165310A1, “ETHER DERIVATIVES OF BICYCLIC HETEROARYLS” (NOVARTIS AG, priority 2009, published 2012).
# pIC50: −log10 of the molar value.
# Biological target: T1, IGF-1R (Homo sapiens, UniProt P08069)
# T1 construct: expressed in transfected cells; host or cells: Hek293 (Hek293-IGF1R)
# Experiment: Cellular IGF-1R assay: capture ELISA (MSD) of receptor phosphorylation in Hek293 cells
# Format: cell-based
# Conditions: Hek293-IGF1R cells, 1 h pre-incubation, 10 min IGF stimulation, pIGF1R capture ELISA
# How it was run: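 IC50 from 4-parameter fit of IGF1R phosphorylation, normalised to IGF-stimulated and unstimulated controls, measured by MSD capture ELISA on lysates. Hek293-IGF1R cells in starvation medium got compound 1 h (top 10 μM, 3-fold steps, 0.1% DMSO) before a 10 min pulse of 1.0 ng/μL IGF.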
# T1 sequence (P08069 31-1367): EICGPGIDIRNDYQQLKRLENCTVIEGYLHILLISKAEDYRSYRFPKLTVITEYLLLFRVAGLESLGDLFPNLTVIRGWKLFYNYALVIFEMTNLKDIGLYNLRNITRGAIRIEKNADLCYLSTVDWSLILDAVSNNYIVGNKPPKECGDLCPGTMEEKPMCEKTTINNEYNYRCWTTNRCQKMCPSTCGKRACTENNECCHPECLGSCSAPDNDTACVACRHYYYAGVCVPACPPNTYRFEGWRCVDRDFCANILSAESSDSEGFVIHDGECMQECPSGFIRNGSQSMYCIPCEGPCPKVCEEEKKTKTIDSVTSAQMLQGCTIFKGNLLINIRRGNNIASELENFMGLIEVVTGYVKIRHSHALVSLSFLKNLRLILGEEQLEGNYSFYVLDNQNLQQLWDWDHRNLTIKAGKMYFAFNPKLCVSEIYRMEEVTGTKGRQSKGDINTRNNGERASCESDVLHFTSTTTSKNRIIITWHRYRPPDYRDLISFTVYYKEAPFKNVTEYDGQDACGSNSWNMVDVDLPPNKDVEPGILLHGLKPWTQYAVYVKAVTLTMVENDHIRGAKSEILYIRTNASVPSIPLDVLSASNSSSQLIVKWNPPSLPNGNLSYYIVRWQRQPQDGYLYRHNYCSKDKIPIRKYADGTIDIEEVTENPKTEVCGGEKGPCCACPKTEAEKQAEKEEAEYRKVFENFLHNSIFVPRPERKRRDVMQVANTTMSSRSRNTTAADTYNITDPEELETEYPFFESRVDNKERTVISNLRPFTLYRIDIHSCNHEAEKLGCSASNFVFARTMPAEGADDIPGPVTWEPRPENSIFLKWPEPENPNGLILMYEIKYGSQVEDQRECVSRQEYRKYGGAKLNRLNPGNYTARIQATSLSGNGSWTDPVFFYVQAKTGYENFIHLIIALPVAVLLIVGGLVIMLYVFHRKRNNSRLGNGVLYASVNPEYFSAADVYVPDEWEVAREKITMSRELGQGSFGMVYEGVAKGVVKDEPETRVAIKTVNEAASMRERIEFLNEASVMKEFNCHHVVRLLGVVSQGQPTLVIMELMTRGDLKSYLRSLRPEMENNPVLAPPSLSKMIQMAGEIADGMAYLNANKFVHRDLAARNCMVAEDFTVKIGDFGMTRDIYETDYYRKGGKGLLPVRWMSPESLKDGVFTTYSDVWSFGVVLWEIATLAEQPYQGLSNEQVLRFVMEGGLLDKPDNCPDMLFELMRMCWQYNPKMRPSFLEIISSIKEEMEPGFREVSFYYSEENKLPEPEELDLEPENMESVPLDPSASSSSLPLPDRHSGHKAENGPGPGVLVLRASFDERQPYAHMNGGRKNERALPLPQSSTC
row,pIC50,Structure (SMILES)
1,7.21,"CN1CCN([C@H]2CC[C@@H](n3cc(-c4cccc(OCC5CCC(C)(C)O5)c4)c4c(N)ncnc43)CC2)CC1 (relative stereo) [Example 63, 5-[3-(5,5-dimethyl-tetrahydro-furan-2-ylmethoxy)-phenyl]-7-[cis-4-(4-methyl-piperazin-1-yl)-cyclohexyl]-7H-pyrrolo[2,3-d]pyrimidin-4-ylamine]"
2,> 8.40,"CC1(C)CCC(COc2cccc(-c3cn([C@H]4C[C@H](CN5CCC[C@H]5C(N)=O)C4)c4ncnc(N)c34)c2)O1 (stereo partly drawn) [Example 71, (S)-1-(trans-3-{4-amino-5-[3-(5,5-dimethyl-tetrahydro-furan-2-ylmethoxy)-phenyl]-pyrrolo[2,3-d]pyrimidin-7-yl}-cyclobutylmethyl)-pyrrolidine-2-carboxylic acid amide]"
3,7.77,"Nc1ncnc2c1c(-c1cccc(OCC34CCC(CC3)O4)c1)cn2[C@H]1C[C@@H](N2CCS(=O)(=O)CC2)C1 (relative stereo) [Example 230, 7-[cis-3-(1,1-dioxo-thiomorpholin-4-yl)-cyclobutyl]-5-[3-(7-oxa-bicyclo[2.2.1]hept-1-ylmethoxy)-phenyl]-7H-pyrrolo[2,3-d]pyrimidin-4-ylamine]"
4,6.23,"Nc1ncnc2c1c(-c1cccc(OCC34CCC(CC3)O4)c1)cn2[C@H]1CC[C@@H](CO)CC1 [Example 110, ((1S,4S)-4-(5-(3-(7-oxabicyclo[2.2.1]heptan-1-ylmethoxy)phenyl)-4-amino-7H-pyrrolo[2,3-d]pyrimidin-7-yl)-cyclohexyl)methanol]"
5,6.22,"Nc1ncnc2c1c(-c1cccc(OCC34CCC(CC3)O4)c1)cn2[C@H]1CC[C@@H](CN2CCNCC2)CC1 [Example 136, 5-(3-(7-oxabicyclo[2.2.1]heptan-1-ylmethoxy)phenyl)-7-((1S,4S)-4-(piperazin-1-ylmethyl)cyclohexyl)-7H-pyrrolo[2,3-d]pyrimidin-4-amine]"
6,6.76,"NC[C@]1(O)C[C@@H](n2cc(-c3cccc(OCC45CCC(CC4)O5)c3)c3c(N)ncnc32)C1 [Example 208, (Z)-1-Aminomethyl-3-{4-amino-5-[3-(7-oxa-bicyclo[2.2.1]hept-1-ylmethoxy)-phenyl]-pyrrolo[2,3-d]pyrimidin-7-yl}-cyclobutanol]"
7,6.33,"Nc1ncnc2c1c(-c1cccc(OCC34CCC(CC3)O4)c1)cn2C1CCC(O)(CN2CCS(=O)(=O)CC2)CC1 (stereo not drawn) [Example 149, 4-{4-Amino-5-[3-(7-oxa-bicyclo[2.2.1]hept-1-ylmethoxy)-phenyl]-pyrrolo[2,3-d]pyrimidin-7-yl}-1-(1,1-dioxo-1λ6-thiomorpholin-4-ylmethyl)-cyclohexanol]"
8,6.88,"NC(=O)[C@@H]1CCCN1[C@H]1C[C@@H](n2cc(-c3cccc(OCC45CCC(CC4)O5)c3)c3c(N)ncnc32)C1 [Example 189, (S)-1-(cis-3-{4-Amino-5-[3-(7-oxa-bicyclo[2.2.1]hept-1-ylmethoxy)-phenyl]-pyrrolo[2,3-d]pyrimidin-7-yl}-cyclobutyl)-pyrrolidine-2-carboxylic acid amide]"
9,8.10,"CC1(C)CCC(COc2cccc(-c3cn([C@H]4C[C@@H](CN5CCC[C@H]5C(N)=O)C4)c4ncnc(N)c34)c2)O1 (stereo partly drawn) [Example 50, (S)-1-(cis-3-{4-amino-5-[3-(5,5-dimethyl-tetrahydro-furan-2-ylmethoxy)-phenyl]-pyrrolo[2,3-d]pyrimidin-7-yl}-cyclobutylmethyl)-pyrrolidine-2-carboxylic acid amide]"
10,7.42,"Nc1ncnc2c1c(-c1cccc(OCC34CCC(CC3)O4)c1)cn2C1CC(CN2CC(O)C2)C1 (stereo not drawn) [Example 26, 1-(3-{4-amino-5-[3-(7-oxa-bicyclo[2.2.1]hept-1-ylmethoxy)-phenyl]-pyrrolo[2,3-d]pyrimidin-7-yl}-cyclobutylmethyl)azetidin-3-ol]"
11,6.40,"Nc1ncnc2c1c(-c1cccc(OCC34CCC(CC3)O4)c1)cn2C1CCN(C2COC2)CC1 [Example 118, 5-(3-(7-oxabicyclo[2.2.1]heptan-1-ylmethoxy)phenyl)-7-(1-(oxetan-3-yl)piperidin-4-yl)-7H-pyrrolo[2,3-d]pyrimidin-4-amine]"
12,6.27 to 6.50,"CN1CCN([C@H]2CC[C@@H](n3cc(-c4cccc(OCC56CCC(CC5)O6)c4)c4c(N)ncnc43)CC2)CC1=O [Example 143, 4-((1S,4S)-4-(5-(3-(7-oxabicyclo[2.2.1]heptan-1-ylmethoxy)phenyl)-4-amino-7H-pyrrolo[2,3-d]pyrimidin-7-yl)cyclohexyl)-1-methylpiperazin-2-one]"
13,7.06,"CN(C)[C@H]1CC[C@H](n2cc(-c3cccc(OCC45CCC(CC4)O5)c3)c3c(N)ncnc32)CC1 (relative stereo) [Example 183, 7-(trans-4-Dimethylamino-cyclohexyl)-5-[3-(7-oxa-bicyclo[2.2.1]hept-1-ylmethoxy)-phenyl]-7H-pyrrolo[2,3-d]pyrimidin-4-ylamine]"
14,6.72,"CN1CCN([C@H]2C[C@H](n3cc(-c4cccc(OCC56CCC(CC5)O6)c4)c4c(N)ncnc43)C2)CC1=O (relative stereo) [Example 196, 4-(trans-3-{4-Amino-5-[3-(7-oxa-bicyclo[2.2.1]hept-1-ylmethoxy)-phenyl]-pyrrolo[2,3-d]pyrimidin-7-yl}cyclobutyl)-1-methyl-piperazin-2-one]"
15,6.78,"CS(=O)(=O)NCC1CC(n2cc(-c3cccc(OCC45CCC(CC4)O5)c3)c3c(N)ncnc32)C1 (stereo not drawn) [Example 167, N-(3-{4-amino-5-[3-(7-oxa-bicyclo[2.2.1]hept-1-ylmethoxy)-phenyl]-pyrrolo[2,3-d]pyrimidin-7-yl}-cyclobutylmethyl)-methanesulfonamide]"
16,7.41 to 7.59,"NC(=O)[C@@H]1CCCN1C[C@H]1C[C@@H](n2cc(-c3cccc(OCC4CCCCO4)c3)c3c(N)ncnc32)C1 (stereo partly drawn) [Example 42, (S)-1-(cis-3-{4-amino-5-[3-(tetrahydro-pyran-2-ylmethoxy)-phenyl]-pyrrolo[2,3-d]pyrimidin-7-yl}-cyclobutylmethyl)-pyrrolidine-2-carboxylic acid amide]"
17,6.97,"Nc1ncnc2c1c(-c1cccc(OCC34CCC(CC3)O4)c1)cn2C1CCC(N2CCS(=O)(=O)CC2)CC1 (stereo not drawn) [Example 131, 7-[4-(1,1-Dioxo-1λ6-thiomorpholin-4-yl)-cyclohexyl]-5-[3-(7-oxa-bicyclo[2.2.1]hept-1-ylmethoxy)-phenyl]-7H-pyrrolo[2,3-d]pyrimidin-4-ylamine]"
18,6.36,"NC(=O)[C@@H]1CCCN1[C@H]1C[C@H](n2cc(-c3cccc(OCC45CCC(CC4)O5)c3)c3c(N)ncnc32)C1 [Example 190, (S)-1-(trans-3-{4-Amino-5-[3-(7-oxa-bicyclo[2.2.1]hept-1-ylmethoxy)-phenyl]-pyrrolo[2,3-d]pyrimidin-7-yl}-cyclobutyl)-pyrrolidine-2-carboxylic acid amide]"
19,6.50,"CN1CCN([C@H]2CC[C@H](n3cc(-c4cccc(OCC5CCC(C)(C)O5)c4)c4c(N)ncnc43)CC2)CC1 (relative stereo) [Example 62, 5-[3-(5,5-dimethyl-tetrahydro-furan-2-ylmethoxy)-phenyl]-7-[trans-4-(4-methyl-piperazin-1-yl)-cyclohexyl]-7H-pyrrolo[2,3-d]pyrimidin-4-ylamine]"
20,6.70,"Nc1ncnc2c1c(-c1cccc(OCC34CCC(CC3)O4)c1)cn2[C@H]1C[C@](O)(CN2CC(O)C2)C1 [Example 199, (Z)-1-(3-{4-Amino-5-[3-(7-oxa-bicyclo[2.2.1]hept-1-ylmethoxy)-phenyl]-pyrrolo[2,3-d]pyrimidin-7-yl}-1-hydroxy-cyclobutylmethyl)-azetidin-3-ol]"
21,7.28,"[2H]C([2H])([2H])C(=O)NC[C@H]1C[C@@H](n2cc(-c3cccc(OCC45CCC(CC4)O5)c3)c3c(N)ncnc32)C1 [Example 165, d3-N-(3-{4-amino-5-[3-(7-oxa-bicyclo[2.2.1]hept-1-ylmethoxy)-phenyl]-pyrrolo[2,3-d]pyrimidin-7-yl}-cyclobutylmethyl)-acetamide]"
22,7.42 to 7.66,"CC1(C)CCC(COc2cccc(-c3cn([C@H]4C[C@@H](CN5CCC(F)(F)CC5)C4)c4ncnc(N)c34)c2)O1 (single isomer, unassigned) [Example 55]"
23,7.30,"Nc1ncnc2c1c(-c1cccc(OCC34CCC(CC3)O4)c1)cn2C1CCC(CN2CCC(O)C2)CC1 [Example 126, (S)-1-(((1S,4S)-4-(5-(3-(7-oxabicyclo[2.2.1]heptan-1-ylmethoxy)phenyl)-4-amino-7H-pyrrolo[2,3-d]pyrimidin-7-yl)cyclohexyl)methyl)pyrrolidin-3-ol]"
24,6.64,"CC(C)C(=O)N[C@H]1CC[C@@H](n2cc(-c3cccc(OCC45CCC(CC4)O5)c3)c3c(N)ncnc32)CC1 [Example 147, N-((1S,4S)-4-(5-(3-(7-oxabicyclo[2.2.1]heptan-1-ylmethoxy)phenyl)-4-amino-7H-pyrrolo[2,3-d]pyrimidin-7-yl)cyclohexyl)isobutyramide]"
25,6.24,"CC1(O)CC(n2cc(-c3cccc(OCC45CCC(CC4)O5)c3)c3c(N)ncnc32)C1 (stereo not drawn) [Example 219, (E)-3-(4-amino-5-[3-(7-oxa-bicyclo[2.2.1]hept-1-ylmethoxy)-phenyl]-pyrrolo[2,3-d]pyrimidin-7-yl}-1-methyl-cyclobutanol]"
26,6.63,"Nc1ncnc2c1c(-c1cccc(OCC3CCCO3)c1)cn2[C@H]1C[C@@H](CN2CCS(=O)(=O)CC2)C1 (relative stereo) [Example 88, 7-[cis-3-(1,1-Dioxothiomorpholin-4-ylmethyl)-cyclobutyl]-5-[3-(tetrahydro-furan-2-ylmethoxy)-phenyl]-7H-pyrrolo[2,3-d]pyrimidin-4-ylamine]"
27,8.22,"NC(=O)[C@@H]1[C@H]2CC[C@H](C2)N1CC1CC(n2cc(-c3cccc(OCC45CCC(CC4)O5)c3)c3c(N)ncnc32)C1 (stereo partly drawn) [Example 104, (1R,3S,4S)-2-(((1S,3R)-3-(5-(3-(7-oxabicyclo[2.2.1]heptan-1-ylmethoxy)phenyl)-4-amino-7H-pyrrolo[2,3-d]pyrimidin-7-yl)cyclobutyl)methyl)-2-azabicyclo[2.2.1]heptane-3-carboxamide]"
